Reference: patent publication US8962322B2, “Enhancers of induced pluripotent stem cell reprogramming” (City of Hope, priority 2012, dated 2015)
Read-outs that look alike come from different tables or passages of the source.

Assays:
human Oct4 promoter = assay: Oct4-luc luciferase reporter assay (stably transfected CV1 cells); type: cell-based; settings: for Oct4-luc Activity / Oct4-luc fold Induction / fold induction at 1 µM: compound at 1 μM, Oct4-luc cells, triplicates; for induction of Oct4-luc, comparison with known reprogramming enhancers (in words): OAC1 1 μM, BIO 2 μM, BIX 2 μM, AzaC 2 μM, Vc 25 μg/ml, Am580 10 nM, tranylcypromine 5 μM, VPA 0.5 mM, two days
Text: A high-throughput screening scheme was designed to identify Oct4 promoter-activating compounds using a luciferase reporter under the control of the human Oct4 promoter (Oct4-luc). […] A stable cell line (Oct4-luc) that expresses luciferase reporter driven by the exogenous Oct4 promoter was established using hygromycin-resistance as a selection marker. These Oct4-luc cells were used for high-throughput screening of a chemical library of 80,000 compounds. The luciferase reporter activity was measured 24 hr after compound treatment. Solvent treatment was included as a negative control.
(§1) Then the promoter sequences were cloned into pGL4.4-luc-Hyg vector (Promega) to get Oct4-luc or Nanog-luc construct and the fidelity of the Oct4 and Nanog promoter DNA sequences was confirmed by bi-directional sequencing. CV 1 cells were transfected with the Oct4-luc or Nanog-luc constructs and the stably-transfected cells were selected by hygromycine resistance.
Compound Screening: The Oct4-luc cells were seeded at 1.75×10^4 cells per well density into 96-well plates. Compounds were added to cells one day after cell seeding at the concentration of 10 μM for 24 hr in the High-Throughput Screening core facility at City of Hope. Compounds that induced luciferase activity 3-fold or more were selected for further validation in both Oct4-luc and Nanog-luc cells.
(§2) Luciferase Reporter Assays: The Oct4-luc or Nanog-luc cells were treated with compound OAC 1 or its structural analogs at 1 μM concentration or at indicated concentrations in triplicates. Other compounds used include 2 μM BIO, 2 μM BIX, 2 μM
(§3) AzaC, 25 μg/ml Vc, 10 nM Am580, 5 μM tranylcypromine, and 0.5 mM VPA. Luciferase reporter assays were performed as described (51) 24 hr after compound treatment or at indicated time points. For Topflash reporter assays, 0.2 μg β-catenin-responsive Topflash reporter gene plasmid was introduced into CV1 cells using trasfection (Bio-Rad). Compounds were added 6 hr after transfection. Luciferase activity was measured 48 hr after compound treatment using the Glo Luciferase Assay System (Promega).

human Nanog promoter = assay: Nanog-luc luciferase reporter assay (stably transfected CV1 cells); type: cell-based; settings: for Nanog-luc fold Induction / fold induction at 1 µM: compound at 1 μM, Nanog-luc cells, triplicates; for fold induction at 1 µM: Chlorocebus aethiops, CV-1; for induction of Nanog-luc, comparison with known reprogramming enhancers (in words): OAC1 1 μM, BIO 2 μM, BIX 2 μM, AzaC 2 μM, Vc 25 μg/ml, Am580 10 nM, tranylcypromine 5 μM, VPA 0.5 mM, two days
Protocol: Oct4, Sox2, and Nanog form a positive regulatory loop to regulate the expression of each other, and Nanog is considered a downstream target gene of Oct4 and Sox2 (37). Therefore, activation of Nanog promoter was used as a validation assay for the identified compounds. Specifically, the Oct4 promoter-activating compounds were tested to ascertain whether they activate a human
Nanog promoter-driven luciferase reporter gene using in triplicate luciferase reporter assays.
as §1, §2, §3

[1] = Homo sapiens, CV-1, 24 h, read-out: Oct4-luc Activity
[2] = read-out: Oct4-luc fold Induction

SMILES | Oct4-luc fold Induction (human Oct4 promoter) | Nanog-luc fold Induction (human Nanog promoter) | Oct4-luc Activity (human Oct4 promoter) | fold induction at 1 µM (human Oct4 promoter; [1]) | fold induction at 1 µM (human Oct4 promoter; [2]) | fold induction at 1 µM (human Nanog promoter) | induction of Oct4-luc, comparison with known reprogramming enhancers (in words) (human Oct4 promoter) | induction of Nanog-luc, comparison with known reprogramming enhancers (in words) (human Nanog promoter)
CC(C)(C)OC(=O)Nc1ccc(C(=O)Nc2ccc3[nH]ncc3c2)cc1 [Compound C38] |  |  |  | < 1.8 | 1.2 | 1.09 |  | 
O=C(Nc1ccc2[nH]ncc2c1)c1c(F)c(F)c(F)c(F)c1F [Compound C36] |  |  |  | < 1.8 | 1 | 1.02 |  | 
O=C1O[C@H]([C@@H](O)CO)C(O)=C1O [Vc, Vitamin C, reference compound] |  |  |  |  |  |  | no significant effect | no significant effect
O=C(Nc1ccc2[nH]nnc2c1)c1cccc(Cl)c1 [Compound C31] | 1.0 fold | 1.1 fold | + (molecules that induce Oct4-luc less than 1.8-fold were indicated as “+”) |  |  |  |  | 
O=C(Nc1ccc2[nH]ncc2c1)c1ccccc1Br [Compound C24] | 1.5 fold | 1.6 fold | + (molecules that induce Oct4-luc less than 1.8-fold were indicated as “+”) |  |  |  |  | 
Nc1ccc(C(=O)Nc2ccc3[nH]ncc3c2)cc1 [Compound C39] |  |  |  | < 1.8 | 1.62 | 1.55 |  | 
O=C(CCCCC1SCC2NC(=O)NC21)NCc1ccc(C(=O)Nc2ccc3[nH]ncc3c2)cc1 (stereo not drawn) [Compound C42] |  |  |  | < 1.8 | 0.91 | 0.97 |  | 
O=C(Nc1ccc2[nH]ncc2c1)c1cccc(Br)c1 [Compound C20] | 1.5 fold | 1.1 fold | + (molecules that induce Oct4-luc less than 1.8-fold were indicated as “+”) |  |  |  |  | 
O=C(Nc1ccc2[nH]ncc2c1)c1cc(F)c(F)cc1Cl [Compound C35] |  |  |  | < 1.8 | 1.15 | 1.24 |  | 
COc1ccc(Cl)cc1C(=O)Nc1ccc2[nH]ncc2c1 [Compound C34] |  |  |  | < 1.8 | 1.23 | 1.38 |  | 
COc1ccccc1C(=O)Nc1ccc2[nH]ncc2c1 [Compound C25] | 1.5 fold | 1.6 fold | + (molecules that induce Oct4-luc less than 1.8-fold were indicated as “+”) |  |  |  |  | 
COc1cc(OC)c(C(=O)Nc2ccc3[nH]ncc3c2)cc1OC [Compound C33] |  |  |  | < 1.8 | 1 | 1.1 |  | 
COc1ccc(C(=O)Nc2ccc3[nH]ncc3c2)cc1OC [Compound C29] | 1.1 fold | 1.1 fold | + (molecules that induce Oct4-luc less than 1.8-fold were indicated as “+”) |  |  |  |  | 
O=C(Nc1ccc2[nH]ccc2c1)c1ccc(F)cc1 [OAC3, 4-fluoro-N-(1H-indol-5-yl)benzamide] |  |  |  | ≥ 1.8 | 3.7 | 3.5 |  | 
CC(C)(C)OC(=O)NCc1ccc(C(=O)Nc2ccc3[nH]ncc3c2)cc1 [Compound C40] |  |  |  | < 1.8 | 0.97 | 0.96 |  | 
N[C@@H]1C[C@H]1c1ccccc1 (racemic) [tranylcypromine, reference compound] |  |  |  |  |  |  | no significant effect | no significant effect
CCOc1ccc(C(=O)Nc2ccc3[nH]ncc3c2)cc1OCC [Compound C30] | 1.0 fold | 1.1 fold | + (molecules that induce Oct4-luc less than 1.8-fold were indicated as “+”) |  |  |  |  | 
COc1cc2nc(N3CCCN(C)CC3)nc(NC3CCN(Cc4ccccc4)CC3)c2cc1OC [BIX, reference compound] |  |  |  |  |  |  | no significant effect | no significant effect
O=C(Nc1ccc2[nH]ncc2c1)c1cccc(C(F)(F)F)c1 [Compound C21] | 1.2 fold | 1.2 fold | + (molecules that induce Oct4-luc less than 1.8-fold were indicated as “+”) |  |  |  |  | 
O=C(Nc1ccc2[nH]ncc2c1)c1cccc(F)c1 [Compound C18] | 1.3 fold | 1.2 fold | + (molecules that induce Oct4-luc less than 1.8-fold were indicated as “+”) |  |  |  |  | 
O=C(Nc1ccc2[nH]ncc2c1)c1ccccc1Cl [Compound C23] | 1.7 fold | 1.6 fold | + (molecules that induce Oct4-luc less than 1.8-fold were indicated as “+”) |  |  |  |  | 
COc1cc(C(=O)Nc2ccc3[nH]nnc3c2)cc(OC)c1OC [Compound C37] |  |  |  | < 1.8 | 1.05 | 1.08 |  | 
Cc1nc2cc(NC(=O)c3ccc([N+](=O)[O-])cc3)ccc2[nH]1 [Compound C32] | 1.3 fold | 1.2 fold | + (molecules that induce Oct4-luc less than 1.8-fold were indicated as “+”) |  |  |  |  | 
COc1cccc(C(=O)Nc2ccc3[nH]ncc3c2)c1OC [Compound C27] | 1.4 fold | 1.4 fold | + (molecules that induce Oct4-luc less than 1.8-fold were indicated as “+”) |  |  |  |  | 
NCc1ccc(C(=O)Nc2ccc3[nH]ncc3c2)cc1 [Compound C41] |  |  |  | < 1.8 | 1.01 | 1.06 |  | 
CN1CCC(c2c[nH]c3ccc(NC(=O)c4ccc(F)cc4)cc23)CC1 [Compound C16] | 1.0 fold | 1.1 fold | + (molecules that induce Oct4-luc less than 1.8-fold were indicated as “+”) |  |  |  |  | 

The next lines start with results.

Oct4-luc fold Induction (human Oct4 promoter) | Nanog-luc fold Induction (human Nanog promoter) | SMILES | Oct4-luc Activity (human Oct4 promoter) | fold induction at 1 µM (human Oct4 promoter; [1]) | fold induction at 1 µM (human Oct4 promoter; [2]) | fold induction at 1 µM (human Nanog promoter) | induction of Oct4-luc, comparison with known reprogramming enhancers (in words) (human Oct4 promoter) | induction of Nanog-luc, comparison with known reprogramming enhancers (in words) (human Nanog promoter)
4.49 fold | 4.5 fold | O=C(Nc1ccc2[nH]ncc2c1)c1ccc(Br)cc1 [OAC18] | ++ (Compounds that induce Oct4-luc 1.8-fold or more were classified as “++”) |  |  |  |  | 
4.5 fold | 4.4 fold | CCc1ccc(C(=O)Nc2ccc3[nH]ncc3c2)cc1 [OAC10] | ++ (Compounds that induce Oct4-luc 1.8-fold or more were classified as “++”) |  |  |  |  | 
2.2 fold | 2.0 fold | O=C(Nc1ccc2[nH]ncc2c1)c1ccc(F)cc1 [OAC7] | ++ (Compounds that induce Oct4-luc 1.8-fold or more were classified as “++”) |  |  |  |  | 
3.2 fold | 2.9 fold | COc1ccc(C(=O)Nc2ccc3[nH]ncc3c2)cc1 [OAC6] | ++ (Compounds that induce Oct4-luc 1.8-fold or more were classified as “++”) |  |  |  |  | 
2.7 fold | 2.6 fold | CCOc1cccc(C(=O)Nc2ccc3[nH]ncc3c2)c1 [OAC14] | ++ (Compounds that induce Oct4-luc 1.8-fold or more were classified as “++”) |  |  |  |  | 
3 fold | 3.43 fold | COc1ccc(C(=O)Nc2ccc3[nH]c(C)cc3c2)cc1 [OAC16] | ++ (Compounds that induce Oct4-luc 1.8-fold or more were classified as “++”) |  |  |  |  | 
1.9 fold | 1.9 fold | COc1cccc(C(=O)Nc2ccc3[nH]ncc3c2)c1 [OAC15] | ++ (Compounds that induce Oct4-luc 1.8-fold or more were classified as “++”) |  |  |  |  | 
3.8 fold | 3.9 fold | CC(C)c1ccc(C(=O)Nc2ccc3[nH]ncc3c2)cc1 [OAC11] | ++ (Compounds that induce Oct4-luc 1.8-fold or more were classified as “++”) |  |  |  |  | 
1.9 fold | 1.8 fold | O=C(Nc1ccc2[nH]ncc2c1)c1ccccc1 [OAC8] | ++ (Compounds that induce Oct4-luc 1.8-fold or more were classified as “++”) |  |  |  |  | 
2.8 fold | 2.9 fold | Cc1ccc(C(=O)Nc2ccc3[nH]ncc3c2)cc1C [OAC13] | ++ (Compounds that induce Oct4-luc 1.8-fold or more were classified as “++”) |  |  |  |  | 
